Where a SMILES comes first, the peptide text is derived from it. [ ]: non-standard residue; d: D form. The star is where a group is joined. 5FAM = O=C1OC2(c3ccc(O)cc3Oc3cc(O)ccc32)c2ccc(C(=O)*)cc21; pT = C[C@@H](OP(=O)(O)O)[C@H](N)C(=O)O; pS = N[C@@H](COP(=O)(O)O)C(=O)O; Cbz = O=C(OCc1ccccc1)*
Columns and labels:
[1] = tested on: FBXW7-mediated protein degradation; test: Ratiometric DsRed/EGFP protein level assay of full-length proteins with kinase inhibitors; format: cell-based, HEK293T cells; details: for ZMIZ1 level: full-length ZMIZ1, HEK293T + FBXW7, inhibitor 2 µM
Protocol: (§1) HEK293T cells (purchased from ATCC, CRL-3216) were cultured in Dulbecco’s Modified Eagle’s Medium (DMEM, Gibco, Waltham, MA, USA) containing 10% FBS (Gibco, Cat# 10500064), 100 µg/mL Pen/strep (Sigma, P0781) and Amphotericin B (Thermo Fisher, 15290026) at 37 °C in an atmosphere of 5% CO2. Approximately 90,000 cells were plated in 24-well Greiner bio-one plates (#662-160). The next day cells were transfected with Lipofectamine 3000 reagent (L3000001, Invitrogen, Waltham, MA, USA) using the Opti-MEM reduced serum media (Gibco, 31985062). The transfection media was changed with complete DMEM after 4–6 h of transfection. Cells in a 24-well plate were transfected with 500 ng of plasmid DNA in total, for co-transfection each plasmid construct was used in 250 ng amount. For western blots, cells were washed in ice-cold PBS and harvested in SDS loading buffer and then subjected to SDS-PAGE. The samples were then transferred to nitrocellulose membrane. Primary antibodies were the following: Anti-V5 (Invitrogen; 1:5000 dilution), anti-FLAG (Sigma #F1804; 1:5000 dilution), anti-cMyc (#2276, Cell signaling, Danvers, MA, USA) 1:1000 dilution) and anti-tubulin (Sigma #T6199; 1:50,000 dilution). Secondary antibodies (IRDye® 800CW Goat anti-Mouse IgG, LiCOR #926-32210 and IRDye® 680CW Goat anti-Mouse IgG, LiCOR #926-68070; 1:5000 dilution) were used according to the recommendation of the manufacturer and blots were analyzed by Odyssey CLx imaging system (Li-Cor). Kinase inhibitors were used in 2 µM concentration added 6 h before protein level measurements: GSK3—CHR99021 (#S2924, Selleckchem, Munich, Germany), ERK1/2—SCH772984 (Selleckchem, #S7101), p38—SB202190 (Sigma-Aldrich, #S7067), and JNK—JNK-IN-8 (Selleckchem, #S4901). MG132 proteosomal inhibitor (Merck, #474790) was used in 10 µM concentration and cycloheximide (# 239763, Calbiochem, San Diego, CA, USA) was used in 100 µg/mL concentration. HEK293T cells were washed with 500 μL ice-cold PBS twice and gently collected using a pipette 48 h after transfection. The suspension was centrifuged at 500× g for 10 min at 4 °C. After centrifugation, the cell pellet was resuspended in 110 µL ice cold PBS and the fluorescence signal for EGFP (Excitation 485 nm; Emission 515 nm) and DsRed (Excitation 550 nm; Emission 580 nm) was measured in Corning 384-well microplate (#4514) using a plate reader (CytationTM 3, BioTek Instruments, Winooski, VT, USA).

[2] = tested on: FBXW7-mediated protein degradation; test: Western blot of protein levels in FBXW7-transfected cells; format: cell-based, HEK293T cells
Protocol: as §1, with “concentration.” for “concentration. HEK293T cells were washed with 500 μL ice-cold PBS twice and gently collected using a pipette 48 h after transfection. The suspension was centrifuged at 500× g for 10 min at 4 °C. After centrifugation, the cell pellet was resuspended in 110 µL ice cold PBS and the fluorescence signal for EGFP (Excitation 485 nm; Emission 515 nm) and DsRed (Excitation 550 nm; Emission 580 nm) was measured in Corning 384-well microplate (#4514) using a plate reader (CytationTM 3, BioTek Instruments, Winooski, VT, USA).”

[3] = tested on: FBXW7; test: Ratiometric EGFP/DsRed protein degradation assay with degron probes; format: cell-based, human; details: HEK293T + FBXW7, MG132, EGFP/DsRed ratio
Description: In order to be able to test putative phosphodegron motifs, a ratiometric protein level monitoring method was adapted to monitor MAPK controlled FBXW7 mediated protein degradation. Briefly, intact DsRed and an EGFP-chimera were expressed in HEK293T cells in equal amounts from an expression plasmid, giving an EGFP/DsRed fluorescence ratio close to one under non-degrading conditions. EGFP was fused to a probe comprised of a putative degron sequence and a known MAPK binding docking motif. EGFP signal is expected to diminish faster than DsRed in cells with more FBXW7 if the probe responded to degradation.
We started out from an intentionally general consensus motif of FBXW7 degrons, inspired by the liberal [TS]P..[TS]P pattern defined for yeast Cdc4 substrates, and scanned the human disordered part of the proteome using SliMSearch4 (the disorder score cut-off was 0.4 and flank length was 5). In all, 22 motifs from this list were subjectively chosen and tested in the ratiometric degradation assay giving only 5 positives (see Supplementary Table S1). Based on the results of this first round, by taking information both from the identified positives and negatives, the consensus motif definition was narrowed to requiring a proline at P + 2, but motifs were allowed to have a phospho-mimicking residue (D or E) at P + 4 because it had been formerly reported that this second phosphorylatable residue may be replaced by aspartate or glutamate. […] In the third round, hydrophobic amino acids were more strictly required at positions −1/−2 and P − 1/2/3 positions were further narrowed and P + 4 position was relaxed based on the identified negatives, which gave a higher hit rate (4 out of 6). This third round gave functional motifs at a good rate, but the used motif definition was very restrictive compared to other known motifs. Finally, in the fourth round, we gave up using an optimal consensus and established the positional relaxation model. […] Hits on this final, most predictive list are presented in Supplementary Table S2. All entries were filtered for motif locations by UniProt annotations, discarding all enzyme-inaccessible (e.g., extracellular) instances. Motifs that had any overlapping PFAM domain indicated were manually assessed using the AlphaFold EBI website. Out of these, only motifs that were highly accessible and located outside of confidently predicted folded domains were kept. We also added kinase consensus compatibility to every motif and the number of experiments where phosphorylation could be detected from PhosphoSitePlus.
The chimera degron module was ordered from IDT as gene Block (gBlock). It consisted of a coiled coil dimerization motif (GCN4: EELLSKNYHLENEVARLKK) to increase sensitivity by allowing multivalent binding, a MAPK binding docking motif (AAKG2: KKNASQKRRSLRVHIPDL), and the CycECO degron motif. The motifs were separated by Gly-Ser-Asn linkers and the gBlock was designed so that the motifs could be easily changed by using unique sets of restriction endonucleases. The gBlock was sub-cloned into the Gateway pENTR4 entry plasmid (Thermo Fisher, Waltham, MA, USA) using restriction enzymes (SalI and NotI). The pENTR4-chimera and the destination plasmid (MSCV-CMV-DsRed-IRES-EGFP-DEST from Addgene; 41941), [28]) were subjected to gateway cloning using LR clonase II enzyme (Invitrogen) to obtain the first DsRed-EGFP-chimera DNA construct containing the cycECO degron. Oligonucleotides corresponding to different degron sequences and docking motifs were ligated into the DsRed-EGFP-chimera DNA construct. The list of all the oligonucleotides used for cloning is provided in Supplementary Table S3. pcDNA3-FLAG-FBXW7α was a kind gift from Michael Pagano (New York University). The FBXW7 arginine mutant (Arg mutant: R465C; R479Q; R505L) was created using two-step PCR and cloned into the pcDNA3-FLAG plasmid. […]

[4] = target: T1, Skp1-FBXW7 complex (Homo sapiens, UniProt P63208+Q969H0); test: Fluorescence polarization direct titration of labeled CCNE peptide; format: binding; details: FP direct titration, 50 nM CF-labeled CCNE peptide with increasing Skp1-FBXW7; 20 mM Tris pH 8.0, 100 mM NaCl, 0.05% Brij35P, 2 mM TCEP; value printed in plot
T1 construct: human FBXW7 (263-707) with an N-terminal hexa-histidine (His6) tag; His6 (N, cleaved yes); made in house; host or cells: E. coli Rosetta (DE3)
T1 sequence (Q969H0 263-707): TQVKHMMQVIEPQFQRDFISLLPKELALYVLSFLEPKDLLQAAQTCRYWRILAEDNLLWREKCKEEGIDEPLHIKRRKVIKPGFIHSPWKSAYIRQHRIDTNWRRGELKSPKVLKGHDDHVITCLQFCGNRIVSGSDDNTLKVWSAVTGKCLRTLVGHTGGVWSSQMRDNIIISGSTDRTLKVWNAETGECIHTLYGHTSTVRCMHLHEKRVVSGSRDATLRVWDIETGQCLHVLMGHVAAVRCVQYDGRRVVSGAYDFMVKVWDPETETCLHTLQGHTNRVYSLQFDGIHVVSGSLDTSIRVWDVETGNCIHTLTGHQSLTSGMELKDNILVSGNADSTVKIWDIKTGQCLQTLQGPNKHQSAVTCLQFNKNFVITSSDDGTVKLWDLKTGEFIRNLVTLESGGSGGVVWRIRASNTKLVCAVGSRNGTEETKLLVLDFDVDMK
T1 sequence (P63208 1-149 partner limits assumed): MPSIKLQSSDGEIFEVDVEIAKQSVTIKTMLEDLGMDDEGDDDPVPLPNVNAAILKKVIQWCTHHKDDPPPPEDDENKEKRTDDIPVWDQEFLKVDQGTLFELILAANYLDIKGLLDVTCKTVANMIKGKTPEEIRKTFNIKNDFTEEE
Protocol: Truncated Skp1 (1-149) and human FBXW7 (263-707) with an N-terminal hexa-histidine (His6) tag were cloned into a bicistronic plasmid (pMG950) and were co-expressed in E. coli Rosetta (DE3) strain. The Skp1-FBXW7 complex was purified using affinity, anion exchange, and gel filtration chromatography. The DNA expression plasmid was transformed into E. coli Rosetta (DE3) strain and grown in LB until OD600 = 0.5, protein expression was induced with 100 µM isopropyl-β-d-1-thigalatopyaranoside (IPTG) overnight at 18 °C. The cell pellet was lysed, and the recombinant protein was purified using Ni-NTA agarose beads. Before further purification the His6-tag was removed by using the TEV protease and then the protein complex was further purified using anion exchange chromatography twice, first with a Resource Q and then with a Mono Q column (pH = 8). Finally, the complex was subjected to size-exclusion chromatography in 20 mM Tris, pH = 8, 150 mM NaCl, and 1 mM DTT using a Superdex200 10/300 column (GE Healthcare, Chicago, IL, USA). The eluted fractions were pooled together and were supplemented with 10% glycerol and 2 mM TCEP before concentration and storage. […]

## Cc1cnc(-c2cnc(NCCNc3ccc(C#N)cn3)nc2-c2ccc(Cl)cc2Cl)[nH]1 [CHR99021]
[1]; HEK293T, inhibitor 2 µM added 6 h before DsRed/EGFP measurement
  effect on FBXW7-mediated degradation of full-length constructs: no effect

## Cc1cc(NC(=O)c2cccc(NC(=O)/C=C/CN(C)C)c2)ccc1Nc1nccc(-c2cccnc2)n1 [JNK-IN-8]
[1]; full-length ARID4B, HEK293T + FBXW7, inhibitor 2 µM, 6 h
  effect on ARID4B level: significant effect
[1]; 6 h
  ZMIZ1 level: affected

## CC(C)C[C@@H](C=O)NC(=O)[C@H](CC(C)C)NC(=O)[C@H](CC(C)C)NC(=O)OCc1ccccc1 [MG132] (Cbz-Leu-Leu-Leu-aldehyde)
[2]; HEK293T transfected with FBXW7 plasmid, MG132 10 µM, anti-V5 western blot
  protein level of the CycECO-V5 probe: counteracted the effect of FBXW7 expression
[2]; KLF4, ETV5, ARID4B, CDT1, ZMIZ1, JAZF1 V5-tagged constructs, HEK293T, MG132 10 µM, western blot
  protein levels of full-length constructs in the presence of FBXW7: counteracted the effect of FBXW7
[3]
  CycEco-EGFP probe degradation: blocked

## Oc1ccc(-c2nc(-c3ccncc3)c(-c3ccc(F)cc3)[nH]2)cc1 [SB202190]
[1]; full-length JAZF1, HEK293T + FBXW7, inhibitor 2 µM, 6 h
  degradation of JAZF1: lower
[1]; 6 h
  ZMIZ1 level: affected
[2]; HEK293T co-transfected with Fusion WT and FBXW7, inhibitor 2 µM, anti-Myc western blot
  FBXW7-mediated degradation of the JAZF1-SUZ12 fusion construct: counteracted

## O=C(Nc1ccc2[nH]nc(-c3ccncc3)c2c1)[C@@H]1CCN(CC(=O)N2CCN(c3ccc(-c4ncccn4)cc3)CC2)C1 [SCH772984]
[1]; 6 h
  ZMIZ1 level: affected

## CC(C)C[C@H](NC(=O)CNC(=O)[C@H](CO)NC(=O)[C@@H]1CCCN1C(=O)c1ccc2c(c1)C(=O)OC21c2ccc(O)cc2Oc2cc(O)ccc21)C(=O)N[C@@H](CC(C)C)C(=O)N[C@H](C(=O)N1CCC[C@H]1C(=O)N1CCC[C@H]1C(=O)N[C@@H](CCC(N)=O)C(=O)N[C@@H](COP(=O)(O)O)C(=O)NCC(=O)N[C@@H](CCCCN)C(=O)N[C@@H](CCCCN)C(=O)N[C@@H](CCC(N)=O)C(=O)O)[C@@H](C)OP(=O)(O)O [fluorescently labeled CCNE peptide] (5FAM-PSGLL[pT]PPQ[pS]GKKQ-OH)
[4]
  Kd: 2.8 ± 1.6 nM

Source: publication PMC8955265, “Systematic Discovery of FBXW7-Binding Phosphodegrons Highlights Mitogen-Activated Protein Kinases as Important Regulators of Intracellular Protein Levels” (International Journal of Molecular Sciences, 2022)
